Active and inactive are the calls of the source.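 Rule for the calls: active = compounds whose IC50 for cutting the S1P-driven reporter signal is at most 40 micromolar; inactive = IC50 above 40 micromolar.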
Target: CHO S1P3/Ga15 NFAT-beta-lactamase reporter, FRET
Experiment: S1P3 receptor NFAT-BLA reporter inhibition, dose response, counter-screen for 5HT1E antagonist project, CHO cells, Ga15, NFAT beta-lactamase, FRET (AID 776)

IC50	Structure (SMILES)
> 12.4 µM (inactive)	O=C1C2C3C=CC(CO)(O3)C2C(=O)N1c1ccc(-c2ccccc2)cc1 (stereo not given)
7.56 µM	CC(=O)Oc1ccc(N2C(=O)C3C(C2=O)C2(C)C=CC3(C)O2)cc1 (stereo not given)

Further lines, the molecule ahead of its results:

Structure (SMILES)	IC50
COc1ccc(N2C(=O)CC(NCc3ccncc3)C2=O)cc1 (stereo not given)	> 50 µM (inactive)
COc1cc2c(cc1OC)C1=C(C#N)CC/C(=N\S(=O)(=O)c3ccccc3)N1CC2	> 50 µM (inactive)
CSc1ccccc1N=CC1=C(O)CC(C)(C)CC1=O	4.33 µM
